Laboratory results: patent US20240360082A1, “SUBSTITUTED PYRIDONE COMPOUNDS USEFUL TO TREAT ORTH[…]” (priority 2021, published 2024)
pIC50: −log10 of the molar value.

target: influenza A virus minigenome (PB2, PB1, PA, NP proteins) (UniProt P04665); format: cell-based; conditions: read-out: RNP_ Hubei B IC50
Sequence (P04665 whole entry): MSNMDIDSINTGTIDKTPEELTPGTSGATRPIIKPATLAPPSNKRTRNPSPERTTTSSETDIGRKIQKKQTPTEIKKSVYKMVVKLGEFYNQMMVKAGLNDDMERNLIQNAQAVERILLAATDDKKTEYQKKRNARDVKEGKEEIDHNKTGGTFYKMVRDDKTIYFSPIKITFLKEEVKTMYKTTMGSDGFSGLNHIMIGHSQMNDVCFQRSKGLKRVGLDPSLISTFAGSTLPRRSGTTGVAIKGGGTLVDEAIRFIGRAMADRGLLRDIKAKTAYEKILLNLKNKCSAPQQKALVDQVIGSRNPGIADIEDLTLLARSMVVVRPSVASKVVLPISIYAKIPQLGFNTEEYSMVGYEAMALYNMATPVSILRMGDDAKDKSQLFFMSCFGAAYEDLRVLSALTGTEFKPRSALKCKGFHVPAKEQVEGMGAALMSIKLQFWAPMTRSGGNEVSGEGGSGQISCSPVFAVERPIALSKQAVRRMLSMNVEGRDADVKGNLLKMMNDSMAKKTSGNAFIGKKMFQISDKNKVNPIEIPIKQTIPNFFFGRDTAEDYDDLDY

`NC(=O)c1cc(-c2ccc(OCC3COCC(F)(F)C3)cc2)c(C(F)(F)F)[nH]c1=O` (single isomer, unassigned) [Example 337, 5-(4-((5,5-difluorotetrahydro-2H-pyran-3-yl)methoxy)phenyl)-2-oxo-6-(trifluoromethyl)-1,2-dihydropyridine-3-carboxamide] and `NC(=O)c1cc(-c2ccc(OCC3COCC4(CC4)O3)cc2)c(C(F)(F)F)[nH]c1=O` (single isomer, unassigned) [Example 335, (4-(4,7-dioxaspiro[2.5]octan-5-ylmethoxy)phenyl)-2-oxo-6-(trifluoromethyl)-1,2-dihydropyridine-3-carboxamide] fall in the same range of pIC50: 5.00 to 5.30 for the first, 5.00 to 5.30 for the second.

`NC(=O)c1cc(-c2ccc(OCC3CCO3)cc2)c(C(F)(F)F)[nH]c1=O` (stereo not drawn) [Example 225, 5-(4-(oxetan-2-ylmethoxy)phenyl)-2-oxo-6-(trifluoromethyl)-1,2-dihydropyridine-3-carboxamide] and `C[C@@H]1COC[C@@H](COc2ccc(-c3cc(C(N)=O)c(=O)[nH]c3C(F)(F)F)cc2)O1` [Example 329, 5-(4-(((2S,6R)-6-methyl-1,4-dioxan-2-yl)methoxy)phenyl)-2-oxo-6-(trifluoromethyl)-1,2-dihydropyridine-3-carboxamide] fall in the same range of pIC50: 4.30 to 4.60 for the first, 4.30 to 4.60 for the second.

Compared with `NC(=O)c1cc(-c2ccc(OCC3OCC4CCC3O4)cc2)c(C(F)(F)F)[nH]c1=O` (single isomer, unassigned) [Example 319, 5-(4-((3,8-dioxabicyclo[3.2.1]octan-2-yl)methoxy)phenyl)-2-oxo-6-(trifluoromethyl)-1,2-dihydropyridine-3-carboxamide], `NC(=O)c1cc(-c2ccc(OC[C@@H]3COC[C@H](C4CC4)O3)cc2)c(C(F)(F)F)[nH]c1=O` [Example 404, 5-(4-(((2S,6S)-6-cyclopropyl-1,4-dioxan-2-yl)methoxy)phenyl)-2-oxo-6-(trifluoromethyl)-1,2-dihydropyridine-3-carboxamide] is lower in pIC50: 5.00 to 5.30 for the first, 4.60 to 5.00 for the second. The first is the more potent here.

Compared with `C[C@]1(CS(=O)(=O)C2CC2)COC[C@@H](COc2ccc(-c3cc(C(N)=O)c(=O)[nH]c3C(F)(F)F)cc2)O1` [Example 413, 5-(4-(((2S,6R)-6-((cyclopropylsulfonyl)methyl)-6-methyl-1,4-dioxan-2-yl)methoxy)phenyl)-2-oxo-6-(trifluoromethyl)-1,2-dihydropyridine-3-carboxamide], `NC(=O)c1cc(-c2ccc(OCC3COC4(CC4)CO3)cc2)c(C(F)(F)F)[nH]c1=O` (racemic) [Example 338, 5-(4-((4,7-dioxaspiro[2.5]octan-6-yl)methoxy)phenyl)-2-oxo-6-(trifluoromethyl)-1,2-dihydropyridine-3-carboxamide] is lower in pIC50: 5.00 to 5.30 for the first, 4.60 to 5.00 for the second. The first is the more potent here.

Compared with `Cc1ncsc1COc1ccc(-c2cc(C(N)=O)c(=O)[nH]c2C(F)(F)F)cc1` [Example 272, 5-(4-((4-methylthiazol-5-yl)methoxy)phenyl)-2-oxo-6-(trifluoromethyl)-1,2-dihydropyridine-3-carboxamide], `COC[C@@H]1COC[C@H](COc2ccc(-c3cc(C(N)=O)c(=O)[nH]c3C(F)(F)F)cc2)O1` (single isomer, unassigned) [Example 400] is higher in pIC50: 4.30 to 4.60 for the first, 5.00 to 5.30 for the second. The second is the more potent here.

`COC(C)(C)C1COCC(COc2ccc(-c3cc(C(N)=O)c(=O)[nH]c3C(F)(F)F)cc2)O1` (stereo not drawn) [Example 382, 5-(4-((6-(2-methoxypropan-2-yl)-1,4-dioxan-2-yl)methoxy)phenyl)-2-oxo-6-(trifluoromethyl)-1,2-dihydropyridine-3-carboxamide] and `COC(C)(C)COCC1COCC(COc2ccc(-c3cc(C(N)=O)c(=O)[nH]c3C(F)(F)F)cc2)O1` (single isomer, unassigned) [Example 371, 5-(4-((6-((2-methoxy-2-methylpropoxy)methyl)-1,4-dioxan-2-yl)methoxy)phenyl)-2-oxo-6-(trifluoromethyl)-1,2-dihydropyridine-3-carboxamide] fall in the same range of pIC50: 5.00 to 5.30 for the first, 5.00 to 5.30 for the second.

`NC(=O)c1cc(-c2ccc(OC[C@@H]3COCC4(COCCOC4)O3)cc2)c(C(F)(F)F)[nH]c1=O` [Example 416, (S)-5-(4-((1,4,8,11-tetraoxaspiro[5.6]dodecan-2-yl)methoxy)phenyl)-2-oxo-6-(trifluoromethyl)-1,2-dihydropyridine-3-carboxamide] and `C[C@]12O[C@@H](COc3ccc(-c4cc(C(N)=O)c(=O)[nH]c4C(F)(F)F)cc3)CO[C@H]1C2(F)F` [Example 397, 5-(4-(((1S,3R,6R)-7,7-difluoro-1-methyl-2,5-dioxabicyclo[4.1.0]heptan-3-yl)methoxy)phenyl)-2-oxo-6-(trifluoromethyl)-1,2-dihydropyridine-3-carboxamide] fall in the same range of pIC50: 5.00 to 5.30 for the first, 5.00 to 5.30 for the second.

same assay, conditions: read-out: RNP_Hubei B

First: CC(Oc1ccc(-c2cc(C(N)=O)c(=O)[nH]c2C(F)(F)F)cc1)c1cccnc1 (single isomer, unassigned) [Example 81, (R or S)-2-oxo-5-(4-(1-(pyridin-3-yl)ethoxy)phenyl)-6-(trifluoromethyl)-1,2-dihydropyridine-3-carboxamide]
Second: NC(=O)c1cc(-c2ccc(Oc3ccccc3)cc2)c(C(F)(F)F)[nH]c1=O [Example 6, 2-oxo-5-(4-phenoxyphenyl)-6-(trifluoromethyl)-1,2-dihydropyridine-3-carboxamide]
The pIC50 of the first is lower: 4.60 to 5.00 for the first, 5.30 to 6.00 for the second.

`CC1CN(Cc2ccc(-c3cc(C(N)=O)c(=O)[nH]c3C(F)(F)F)cc2)CCO1` (stereo not drawn) [Example 29, 5-(4-((2-methylmorpholino)methyl)phenyl)-2-oxo-6-(trifluoromethyl)-1,2-dihydropyridine-3-carboxamide] and `CC1(C)CN(Cc2ccc(-c3cc(C(N)=O)c(=O)[nH]c3C(F)(F)F)cc2)CCO1` [Example 39, 5-(4-((2,2-dimethylmorpholino)methyl)phenyl)-2-oxo-6-(trifluoromethyl)-1,2-dihydropyridine-3-carboxamide] fall in the same range of pIC50: 4.60 to 5.00 for the first, 4.60 to 5.00 for the second.

`NC(=O)c1cc(-c2ccc(OCc3nccs3)cc2)c(C(F)(F)F)[nH]c1=O` [Example 143, 2-oxo-5-(4-(thiazol-2-ylmethoxy)phenyl)-6-(trifluoromethyl)-1,2-dihydropyridine-3-carboxamide] and `NC(=O)c1cc(-c2ccc(OCc3ccccc3[N+](=O)[O-])cc2)c(C(F)(F)F)[nH]c1=O` [Example 76, 5-(4-((2-nitrobenzyl)oxy)phenyl)-2-oxo-6-(trifluoromethyl)-1,2-dihydropyridine-3-carboxamide] fall in the same range of pIC50: 4.60 to 5.00 for the first, 4.60 to 5.00 for the second.

First: NC(=O)c1cc(-c2ccc(OCc3ccc4cc[nH]c4c3)cc2)c(C(F)(F)F)[nH]c1=O [Example 86, 5-(4-((1H-indol-6-yl)methoxy)phenyl)-2-oxo-6-(trifluoromethyl)-1,2-dihydropyridine-3-carboxamide]
Second: NC(=O)c1cc(-c2ccc(OCc3ccc(C(F)(F)F)cc3)cc2)c(C(F)(F)F)[nH]c1=O [Example 87, 2-oxo-6-(trifluoromethyl)-5-(4-((4-(trifluoromethyl)benzyl)oxy)phenyl)-1,2-dihydropyridine-3-carboxamide]
The pIC50 of the first is lower: 5.00 to 5.30 for the first, 5.30 to 6.00 for the second.

Compared with `NC(=O)c1cc(-c2ccc(OCc3cnc(NCC4CC4)nc3)cc2)c(C(F)(F)F)[nH]c1=O` [Example 161], `COC1CN(Cc2ccc(-c3cc(C(N)=O)c(=O)[nH]c3C(F)(F)F)cc2)C1` [Example 38, 5-(4-((3-methoxyazetidin-1-yl)methyl)phenyl)-2-oxo-6-(trifluoromethyl)-1,2-dihydropyridine-3-carboxamide] is lower in pIC50: 4.60 to 5.00 for the first, 4.30 to 4.60 for the second.
